Measured values published in ChEMBL document CHEMBL3046909, “C(18) acetylenic fatty acids of Ximenia americana with potential pesticidal activity” (J Agric Food Chem, 2000).
Converted amounts (≈) assume the structure as drawn.

Key:
[1] = (§1) Toxicity in Artemia (brine shrimps) larvae; type: organism-based; details: in vivo
[2] = system: Clavigralla tomentosicollis; assay: Inhibition of hatching of Clavigralla tomentosicollis eggs in pods of cowpea at 4x10'4 ug/mL spray measured after 6 days; type: functional
Artemia = assay: as §1; type: organism-based; details: in vivo

Structure (SMILES) | LC50 [1] | inhibition (INH) [2] | Activity (Artemia)
C/C=C/C=C/C#C/C=C\CCCCCCCCC(=O)O | 20 µg/mL (≈ 72.9 µM) | 92% | –
CC[C@H](CC[C@@H](C)[C@H]1CC[C@H]2[C@@H]3CC=C4C[C@@H](O)CC[C@]4(C)[C@H]3CC[C@]12C)C(C)C [BETA-SITOSTEROL] | – | – | Non-toxic
